Measurements from article PMC8320107 (ACS Omega, 2021).
Like-named read-outs stand apart in the source and are kept apart here.

Molecular target: AChE (Homo sapiens, UniProt P22303)
Test: In vitro AChE inhibitory activity, Ellman's colorimetric method
Type: biochemical
Details: for relative potency (%): AChE inhibitory potency relative to donepezil hydrochloride (100)
[1] = in vitro AChE inhibition, mean ± standard error of the mean of three experiments

AChE, sequence (P22303 32-614): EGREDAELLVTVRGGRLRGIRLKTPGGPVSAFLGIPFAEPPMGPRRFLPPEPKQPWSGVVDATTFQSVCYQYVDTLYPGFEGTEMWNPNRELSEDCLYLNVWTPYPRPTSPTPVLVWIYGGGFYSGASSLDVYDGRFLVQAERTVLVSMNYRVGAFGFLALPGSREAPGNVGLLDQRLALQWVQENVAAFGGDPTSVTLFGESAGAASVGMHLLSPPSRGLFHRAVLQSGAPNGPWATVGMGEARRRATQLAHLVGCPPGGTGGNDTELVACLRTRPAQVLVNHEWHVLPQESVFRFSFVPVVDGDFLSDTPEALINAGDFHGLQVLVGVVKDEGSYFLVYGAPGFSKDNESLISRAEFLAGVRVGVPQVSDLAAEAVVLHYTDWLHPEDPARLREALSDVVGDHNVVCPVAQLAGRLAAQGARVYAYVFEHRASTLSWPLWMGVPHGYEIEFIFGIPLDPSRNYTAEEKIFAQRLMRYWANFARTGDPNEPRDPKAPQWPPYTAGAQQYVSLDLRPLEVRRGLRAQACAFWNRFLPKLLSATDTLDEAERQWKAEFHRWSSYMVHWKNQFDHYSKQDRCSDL

SMILES | IC50 [1] | IC50 | relative potency (%)
Cc1ccc(-c2csc(NC3=NC(=O)C(=Cc4ccc(Br)s4)S3)n2)cc1 [Compound 14, 2-[4-(p-Tolylthiazol-2-yl)amino]-5-[(5-bromothiophen-2-yl)methylene]-4,5-dihydrothiazole-4-one] | 380 ± 10 nM | – | –
COc1ccc(-c2csc(N3C(=O)C(=Cc4ccc(OC)c(OC)c4)SC3=NCc3ccccc3)n2)cc1 [Compound 32, 2-(Benzylimino)-5-(3,4-dimethoxybenzylidene)-3-[4-(4-methoxyphenyl)thiazol-2-yl]thiazolidin-4-one] | – | 450 ± 12 nM | –
COc1ccc(-c2csc(N3C(=O)CSC3=NCc3ccccc3)n2)cc1 [Compound 31, 2-Benzylimino-3-[4-(4-methoxyphenyl)thiazol-2-yl]thiazolidin-4-one] | – | 152 ± 4.1 nM | 36.08%
COc1ccc(-c2csc(NC3=NC(=O)C(=Cc4cccs4)S3)n2)cc1 [Compound 20, 2-[4-(4-Methoxyphenylthiazol-2-yl)amino]-5-[(thiophen-2-yl)methylene]-4,5-dihydrothiazole-4-one] | 260 ± 7.1 nM | – | –
COc1ccc(-c2csc(NC3=NC(=O)C(=Cc4ccc(Br)s4)S3)n2)cc1 [Compound 21, 2-[4-(4-Methoxyphenylthiazol-2-yl)amino]-5-[(5-bromothiophen-2-yl)methylene]-4,5-dihydrothiazole-4-one] | 188 ± 5.1 nM | – | 29.28%
COc1ccc(-c2csc(N3C(=O)C(=Cc4ccc(Cl)cc4Cl)SC3=NCc3ccccc3)n2)cc1 [Compound 33, 2-(Benzylimino)-5-(2,4-dichlorobenzylidene)-3-[4-(4-methoxyphenyl)thiazol-2-yl]thiazolidin-4-one] | – | 188 ± 5.1 nM | 29.27%
COc1ccc(-c2csc(NC3=NC(=O)C(=Cc4ccc(C)cc4)S3)n2)cc1 [Compound 15, 2-[4-(4-Methoxyphenylthiazol-2-yl)amino]-5-(4-methylbenzylidene)-4,5-dihydrothiazole-4-one] | 375 ± 10 nM | – | –
Cc1ccc(-c2csc(N3C(=O)CSC3=NCc3ccccc3)n2)cc1 [Compound 29, 2-Benzylimino-3-[4-(p-tolyl)thiazol-2-yl]thiazolidin-4-one] | – | 188 ± 5.1 nM | –
COc1ccc(-c2csc(NC3=NC(=O)C(=Cc4ccc(Cl)cc4)S3)n2)cc1 [Compound 18, 2-[4-(4-Methoxyphenylthiazol-2-yl)amino]-5-(4-chlorobenzylidene)-4,5-dihydrothiazole-4-one] | 193 ± 5.3 nM | – | 28.43%
Cc1ccc(C=C2SC(Nc3nc(-c4ccc(C)cc4)cs3)=NC2=O)cc1 [Compound 8, 2-[4-(p-Tolylthiazol-2-yl)amino]-5-(4-methylbenzylidene)-4,5-dihydrothiazole-4-one] | 501 ± 14 nM | – | –
COc1ccc(-c2csc(NC3=NC(=O)C(=Cc4ccc(OC)c(OC)c4)S3)n2)cc1 [Compound 17, 2-[4-(4-Methoxyphenylthiazol-2-yl)amino]-5-(3,4-dimethoxybenzylidene)-4,5-dihydrothiazole-4-one] | 176 ± 4.8 nM | – | 31.26%
COc1ccc(-c2csc(NC3=NC(=O)C(=Cc4ccc(Cl)cc4Cl)S3)n2)cc1 [Compound 19, 2-[4-(4-Methoxyphenylthiazol-2-yl)amino]-5-(2,4-dichlorobenzylidene)-4,5-dihydrothiazole-4-one] | 731 ± 20 nM | – | –
Cc1ccc(-c2csc(NC3=NC(=O)C(=Cc4ccc(Cl)cc4Cl)S3)n2)cc1 [Compound 12, 2-[4-(p-Tolylthiazol-2-yl)amino]-5-(2,4-dichlorobenzylidene)-4,5-dihydrothiazole-4-one] | 336 ± 9.1 nM | – | –
CCN=C1SCC(=O)N1c1nc(-c2ccc(C)cc2)cs1 [Compound 28, 2-Ethylimino-3-[4-(p-tolyl)thiazol-2-yl]thiazolidin-4-one] | – | 478 ± 13 nM | –
CCN=C1SCC(=O)N1c1nc(-c2ccc(OC)cc2)cs1 [Compound 30, 2-Ethylimino-3-[4-(4-methoxyphenyl)thiazol-2-yl]thiazolidin-4-one] | – | 346 ± 9.4 nM | –
